Consider 23 molecules from US20260217706A1, “HETEROCYCLIC COMPOUNDS, PREPARATION METHOD THEREFOR AND USE THEREOF” (GUANGZHOU YUFAN NANTU BIOTECHNOLOGIES CO., LTD, priority 2023, published 2026).

Bounds are passed on as bounds.

Chain of CBL-B protein (Q13191 whole entry): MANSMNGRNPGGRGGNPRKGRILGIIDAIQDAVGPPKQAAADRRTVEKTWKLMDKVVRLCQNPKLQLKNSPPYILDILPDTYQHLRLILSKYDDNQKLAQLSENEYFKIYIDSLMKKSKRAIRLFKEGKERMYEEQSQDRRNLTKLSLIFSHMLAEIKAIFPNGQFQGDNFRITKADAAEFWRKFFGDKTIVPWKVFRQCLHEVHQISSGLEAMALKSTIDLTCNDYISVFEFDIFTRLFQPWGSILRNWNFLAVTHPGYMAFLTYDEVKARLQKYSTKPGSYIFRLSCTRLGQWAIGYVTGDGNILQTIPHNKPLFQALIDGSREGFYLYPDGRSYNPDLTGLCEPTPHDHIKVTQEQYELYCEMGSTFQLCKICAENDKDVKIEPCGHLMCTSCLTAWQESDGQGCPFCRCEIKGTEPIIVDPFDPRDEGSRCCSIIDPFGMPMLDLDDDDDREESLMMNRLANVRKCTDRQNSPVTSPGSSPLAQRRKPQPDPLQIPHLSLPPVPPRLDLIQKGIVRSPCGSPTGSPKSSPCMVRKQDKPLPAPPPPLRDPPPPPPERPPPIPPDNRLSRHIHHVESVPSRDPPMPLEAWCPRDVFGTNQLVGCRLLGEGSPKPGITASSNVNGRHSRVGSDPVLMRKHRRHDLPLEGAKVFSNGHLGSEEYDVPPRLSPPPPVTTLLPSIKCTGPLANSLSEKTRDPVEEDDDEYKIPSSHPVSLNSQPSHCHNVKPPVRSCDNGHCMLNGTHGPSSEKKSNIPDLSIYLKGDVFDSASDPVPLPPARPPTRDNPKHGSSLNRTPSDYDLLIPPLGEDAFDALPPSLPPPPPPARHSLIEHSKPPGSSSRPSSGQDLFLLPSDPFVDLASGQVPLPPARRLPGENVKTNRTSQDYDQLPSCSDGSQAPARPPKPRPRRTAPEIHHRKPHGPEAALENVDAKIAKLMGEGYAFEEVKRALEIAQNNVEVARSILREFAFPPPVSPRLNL

This experiment addresses CBL-B protein (Homo sapiens, UniProt Q13191). Kind of experiment: CBL-B binding experiment (Streptavidin-Tb cryptate / Ligand L1 displacement). The following applies: 8 nM CBL-B protein, 25° C., 60 minutes; Ki=Relative IC50/2. The protocol: The reaction system mainly includes 1× buffer, 20 mM HEPES pH 7.5, 150 mM NaCl, 0.01% Triton X-100, 0.5 mM TCEP, and 0.1% ug/ml BSA. The compound is continuously diluted with DMSO for 10 concentration points, and 150 nL is transferred to the experimental plate. The experimental reaction begins after adding 8 nM of CBL-B protein and the reaction is carried out at 25° C. for 60 minutes. […] After an additional 60 minutes of incubation at room temperature, the experimental plate is read using an EnVision plate. The luminescence signal values were converted to percentage inhibition rates. Inhibition %=(Sample value−Maximum value)/(Minimum value−Maximum value)×100. The minimum value refers to the measured value in the wells without CBL-B protein but with DMSO and Ligand, while the maximum value refers to the measured value in the wells with DMSO, CBL-B protein, and Ligand. The IC50 values are calculated by XLFit (version 5.3.1.3) in Excel. Equation: Y=Bottom+(Top−Bottom)/(1+(IC50/X)^HillSlope); Ki=Relative IC50/2.
In turn, `C[C@@H](NCc1cc2c(C(F)(F)F)cn(-c3cccc(C4(c5nncn5C)CCC4)c3)c(=O)c2[nH]1)C(C)(C)C` (racemic) [Compound T044, 6-[3-[1-(4-methyl-1,2,4-triazol-3-yl)cyclobutyl]phenyl]-2-[[[rac-(1R)-1,2,2-trimethylpropyl]amino]methyl]-4-(trifluoromethyl)-1H-pyrrolo[2,3-c]pyridin-7-one] registered a Ki of under 50 nM.

In turn, `Cn1cnnc1C1(c2cccc(-n3cc(C(F)(F)F)c4cc(CN5CCCC(C(F)F)C5)[nH]c4c3=O)c2)CCC1` (racemic) [Compound T113, 6-[3-[1-(4-methyl-1,2,4-triazol-3-yl)cyclobutyl]phenyl]-2-[[rac-(3R)-3-(difluoromethyl)-1-piperidyl]methyl]-4-(trifluoromethyl)-1H-pyrrolo[2,3-c]pyridin-7-one] gave a Ki of under 50 nM.

Take `C[C@H]1CCCN(Cc2cc3ccn(-c4cccc(C5(Cc6nncn6C)COC5)c4)c(=O)c3[nH]2)C1` [Compound T001, (S)-6-(3-(3-((4-methyl-4H-1,2,4-triazol-3-yl)methyl)oxetan-3-yl)phenyl)-2-((3-methylpiperidin-1-yl)methyl)-1,6-dihydro-7H-pyrrolo[2,3-c]pyridin-7-one]: the Ki is under 50 nM.

In turn, `Cc1cn(-c2cccc(C3(Cc4nncn4C)COC3)c2)c(=O)c2[nH]c(CN3CCC[C@H](C)C3)cc12` [Compound T003, 4-methyl-2-[[(3S)-3-methyl-1-piperidyl]methyl]-6-[3-[3-[(4-methyl-1,2,4-triazol-3-yl)methyl]oxetan-3-yl]phenyl]-1H-pyrrolo[2,3-c]pyridin-7-one] yielded a Ki of under 50 nM.

The molecule `C=Cc1cn(-c2cccc([C@]3(c4nncn4C)C[C@@H](C)C3)c2)c(=O)c2[nH]c(CN3CCC[C@H](C)C3)cc12` [Compound T004, 6-(3-((1s,3R)-3-methyl-1-(4-methyl-4H-1,2,4-triazol-3-yl)cyclobutyl)phenyl)-2-(((S)-3-methylpiperidin-1-yl)methyl)-4-vinyl-1,6-dihydro-7H-pyrrolo[2,3-c]pyridin-7-one] gave a Ki of under 50 nM.

`Cn1cnnc1CC1(c2cccc(-n3cc(C4CC4)c4cc(CN5CCCCC5)[nH]c4c3=O)c2)COC1` [Compound T006, 4-cyclopropyl-6-[3-[3-[(4-methyl-1,2,4-triazol-3-yl)methyl]oxetan-3-yl]phenyl]-2-(1-piperidylmethyl)-1H-pyrrolo[2,3-c]pyridin-7-one] had a Ki of under 50 nM.

Molecule `C[C@H]1CCCN(Cc2cc3c(C4CC4)cn(-c4cccc([C@H](c5nncn5C)C5CCC5)c4)c(=O)c3[nH]2)C1` [Compound T012, 6-(3-((R)-cyclobutyl(4-methyl-4H-1,2,4-triazol-3-yl)methyl)phenyl)-4-cyclopropyl-2-(((S)-3-methylpiperidin-1-yl)methyl)-1,6-dihydro-7H-pyrrolo[2,3-c]pyridin-7-one] yielded a Ki of under 50 nM.

Take `Cn1cnnc1C1(c2cccc(-n3cc(C(F)(F)F)c4cc(CN5CC[C@@H](O)C5)[nH]c4c3=O)c2)CCC1` [Compound T015, 2-[[(3R)-3-hydroxypyrrolidin-1-yl]methyl]-6-[3-[1-(4-methyl-1,2,4-triazol-3-yl)cyclobutyl]phenyl]-4-(trifluoromethyl)-1H-pyrrolo[2,3-c]pyridin-7-one]: the inhibitory constant (Ki) is under 50 nM.

As for `Cn1cnnc1C1(c2cccc(-n3cc(C(F)(F)F)c4cc(CN5CC[C@H](O)C5)[nH]c4c3=O)c2)CCC1` [Compound T016, 2-[[(3S)-3-hydroxypyrrolidin-1-yl]methyl]-6-[3-[1-(4-methyl-1,2,4-triazol-3-yl)cyclobutyl]phenyl]-4-(trifluoromethyl)-1H-pyrrolo[2,3-c]pyridin-7-one], the Ki is under 50 nM.

The molecule `CC(C)c1cn(-c2cccc(C3(Cc4nncn4C)COC3)c2)c(=O)c2[nH]c(CN3CCC[C@H](C)C3)cc12` [Compound T022, 4-isopropyl-2-[[(3S)-3-methyl-1-piperidyl]methyl]-6-[3-[3-[(4-methyl-1,2,4-triazol-3-yl)methyl]oxetan-3-yl]phenyl]-1H-pyrrolo[2,3-c]pyridin-7-one] registered a Ki of under 50 nM.

The molecule `Cn1cnnc1C1(c2cccc(-n3cc(C(F)(F)F)c4cc(CN5C[C@@H]6C[C@H]5CO6)[nH]c4c3=O)c2)CCC1` [Compound T031, 6-[3-[1-(4-methyl-1,2,4-triazol-3-yl)cyclobutyl]phenyl]-2-[[(1 S,4S)-2-oxa-5-azabicyclo [2.2.1]heptan-5-yl]methyl]-4-(trifluoromethyl)-1H-pyrrolo[2,3-c]pyridin-7-one] had a Ki of under 50 nM.

Consider `Cn1cnnc1C1(c2cccc(-n3cc(C(F)(F)F)c4cc(CN5C[C@H]6C[C@@H]5CO6)[nH]c4c3=O)c2)CCC1` [Compound T032, 6-[3-[1-(4-methyl-1,2,4-triazol-3-yl)cyclobutyl]phenyl]-2-[[(1R,4R)-2-oxa-5-azabicyclo[2.2.1]heptan-5-yl]methyl]-4-(trifluoromethyl)-1H-pyrrolo[2,3-c]pyridin-7-one], for which the Ki was under 50 nM.

The molecule `C[C@H]1CCCN(Cc2cc3c(C4CC4)cn(-c4cccc([C@]5(Cc6nncn6C)C[C@@H](C)C5)c4)c(=O)c3[nH]2)C1` [Compound T036, 4-cyclopropyl-6-(3-((1r,3S)-3-methyl-1-((4-methyl-4H-1,2,4-triazol-3-yl)methyl)cyclobutyl)phenyl)-2-(((S)-3-methylpiperidin-1-yl)methyl)-1,6-dihydro-7H-pyrrolo[2,3-c]pyridin-7-one] had a Ki of 50 to 100 nM.

Turning to `Cn1cnnc1C1(c2cccc(-n3cc(C(F)(F)F)c4cc(CN5CCC[C@@H](O)C5)[nH]c4c3=O)c2)CCC1` [Compound T039, 2-[[(3R)-3-hydroxy-1-piperidyl]methyl]-6-[3-[1-(4-methyl-1,2,4-triazol-3-yl)cyclobutyl]phenyl]-4-(trifluoromethyl)-1H-pyrrolo[2,3-c]pyridin-7-one], the Ki is under 50 nM.

As for `Cn1cnnc1C1(c2cccc(-n3cc(C(F)(F)F)c4cc(CN5CCC[C@@H](F)C5)[nH]c4c3=O)c2)CCC1` [Compound T046, 2-[[(3R)-3-fluoro-1-piperidyl]methyl]-6-[3-[1-(4-methyl-1,2,4-triazol-3-yl)cyclobutyl]phenyl]-4-(trifluoromethyl)-1H-pyrrolo[2,3-c]pyridin-7-one], the Ki was under 50 nM.

Molecule `Cn1cnnc1C1(c2cccc(-n3cc(C(F)(F)F)c4cc(CN5CCC[C@H](F)C5)[nH]c4c3=O)c2)CCC1` [Compound T048, 2-[[(3S)-3-fluoro-1-piperidyl]methyl]-6-[3-[1-(4-methyl-1,2,4-triazol-3-yl)cyclobutyl]phenyl]-4-(trifluoromethyl)-1H-pyrrolo[2,3-c]pyridin-7-one] came in with a Ki of under 50 nM.

`Cn1cnnc1C1(c2cccc(-n3cc(C(F)(F)F)c4cc(CN5C[C@@H](F)[C@@H](F)C5)[nH]c4c3=O)c2)CCC1` [Compound T049, 2-[[(3R,4S)-3,4-difluoropyrrolidin-1-yl]methyl]-6-[3-[1-(4-methyl-1,2,4-triazol-3-yl)cyclobutyl]phenyl]-4-(trifluoromethyl)-1H-pyrrolo[2,3-c]pyridin-7-one] came in with a Ki of under 50 nM.

On to `Cn1cnnc1C1(c2cccc(-n3cc(C(F)(F)F)c4cc(CNCC(F)(F)CO)[nH]c4c3=O)c2)CCC1` [Compound T050, 2-[[(2,2-difluoro-3-hydroxy-propyl)amino]methyl]-6-[3-[1-(4-methyl-1,2,4-triazol-3-yl)cyclobutyl]phenyl]-4-(trifluoromethyl)-1H-pyrrolo[2,3-c]pyridin-7-one], for which the Ki was under 50 nM.

As to `Cn1cnnc1C1(c2cccc(-n3cc(C(F)(F)F)c4cc(CN5CCC6(CC5)CC6)[nH]c4c3=O)c2)CCC1` [Compound T051, 2-(6-azaspiro[2.5]octan-6-ylmethyl)-6-[3-[1-(4-methyl-1,2,4-triazol-3-yl)cyclobutyl]phenyl]-4-(trifluoromethyl)-1H-pyrrolo[2,3-c]pyridin-7-one], the Ki was under 50 nM.

`Cn1cnnc1C1(c2cccc(-n3cc(C(F)(F)F)c4cc(CN5C6CCCC5CC6)[nH]c4c3=O)c2)CCC1` [Compound T052, 2-(8-azabicyclo[3.2.1]octan-8-ylmethyl)-6-[3-[1-(4-methyl-1,2,4-triazol-3-yl)cyclobutyl]phenyl]-4-(trifluoromethyl)-1H-pyrrolo[2,3-c]pyridin-7-one] registered a Ki of under 50 nM.

Turning to `CN(Cc1cc2c(C(F)(F)F)cn(-c3cccc(C4(c5nncn5C)CCC4)c3)c(=O)c2[nH]1)CC(F)(F)F` [Compound T057, 2-((methyl(2,2,2-trifluoroethyl)amino)methyl)-6-(3-(1-(4-methyl-4H-1,2,4-triazol-3-yl)cyclobutyl)phenyl)-4-(trifluoromethyl)-1,6-dihydro-7H-pyrrolo[2,3-c]pyridin-7-one], the Ki was under 50 nM.

`C[C@H]1CCCN(Cc2cc3c(C(F)(F)F)cn(-c4cccc([C@@H](c5nncn5C)C5CCC5)c4)c(=O)c3[nH]2)C1` [Compound T059, 6-(3-((S)-cyclobutyl (4-methyl-4H-1,2,4-triazol-3-yl)methyl)phenyl)-2-(((S)-3-methylpiperidin-1-yl)methyl)-4-(trifluoromethyl)-1,6-dihydro-7H-pyrrolo[2,3-c]pyridin-7-one] returned a Ki of under 50 nM.

Take `C[C@H]1CCCN(Cc2cc3c(C(F)(F)F)cn(-c4cccc(C5(Cc6nncn6C)COC5)c4)c(=O)c3[nH]2)C1` [Compound T061, 2-[[(3S)-3-methyl-1-piperidyl]methyl]-6-[3-[3-[(4-methyl-1,2,4-triazol-3-yl)methyl]oxetan-3-yl]phenyl]-4-(trifluoromethyl)-1H-pyrrolo[2,3-c]pyridin-7-one]: the Ki is under 50 nM.
